Source: article PMC7277541, “Antimicrobial and Antifungal Activities of Terpene-Derived Palladium Complexes” (Antibiotics, 2020)
In brackets after ≈: the same amount, converted by molar mass.

Assay: Cytotoxicity assay (resazurin)
Format: cell-based, human
Settings: human, HEK293 cells (ATCC CRL-1573), HEK293, 20 h incubation, read-out: CC50 (concentration of 50% cytotoxicity)
Procedure: Screening against bacteria and yeasts for antimicrobial activity and toxicity against mammalian cells was performed in duplicate (n = 2). […] HEK293 cells were counted manually in a Neubauer hemocytometer and added to compound-containing plates (384-well plates, tissue culture treated (TC); Corning CLS3712) giving a final density of 5000 cells/well in a total volume of 50 μL, using Dulbecco's Modified Eagle Medium (DMEM; Life Technologies 11995-073) with 10% Fetal Bovine Serum (FBS; GE SH30084.03). […] Sigma R7017) and after further incubation for 3 h at 37 °C in 5% CO2. Media only was used as negative control and cells without inhibitors as positive growth control. CC50 (concentration at 50% cytotoxicity) values were calculated by curve fitting the inhibition values vs. log(concentration) using a sigmoidal dose-response function, with variable fitting values for bottom, top and slope. Tamoxifen (Sigma Aldrich, Australia T5648) was used as positive inhibitor control on each plate. Selectivity indices (SI) were calculated by dividing the CC50 value (μg/mL) by the MIC value (μg/mL) for a given bacterial or fungal strain.

CC/C(=C(\c1ccccc1)c1ccc(OCCN(C)C)cc1)c1ccccc1 [tamoxifen, Tamoxifen, reference compound]
CC50 at 20 h: 9 µg/mL (≈ 24.2 µM)
